We go through 15 molecules from the Kinase Knowledgebase extract (Sharma et al. 2016).

A value given as a limit tells only on which side of the number the result lay.

The term IC50 denotes the concentration that inhibits the measured activity by half. Read a high IC50 as a need for much substance.

In the first test the target is EGFR (mouse) (UniProt P00533). The conditions noted are these: baf3.
In the case of `O=C(O)c1ccc(-c2cc3c(Nc4cccc(Cl)c4)ncnc3[nH]2)cc1`, the 50% inhibitory concentration (IC50) is 12 nM.

The molecule `COc1cc2ncnc(Nc3ccc(F)c(Cl)c3)c2cc1OCCN1CCOCC1` returned an IC50 of 20 nM. Take `O=C(O)c1cc(N(Cc2ccccc2O)Cc2cc(O)ccc2O)ccc1O`: the IC50 is 12 nM.

Another test deals with EGFR (human) (UniProt P00533). The conditions noted are these: mcf-10a.
EGFR (human), sequence (P00533 whole entry, looked up): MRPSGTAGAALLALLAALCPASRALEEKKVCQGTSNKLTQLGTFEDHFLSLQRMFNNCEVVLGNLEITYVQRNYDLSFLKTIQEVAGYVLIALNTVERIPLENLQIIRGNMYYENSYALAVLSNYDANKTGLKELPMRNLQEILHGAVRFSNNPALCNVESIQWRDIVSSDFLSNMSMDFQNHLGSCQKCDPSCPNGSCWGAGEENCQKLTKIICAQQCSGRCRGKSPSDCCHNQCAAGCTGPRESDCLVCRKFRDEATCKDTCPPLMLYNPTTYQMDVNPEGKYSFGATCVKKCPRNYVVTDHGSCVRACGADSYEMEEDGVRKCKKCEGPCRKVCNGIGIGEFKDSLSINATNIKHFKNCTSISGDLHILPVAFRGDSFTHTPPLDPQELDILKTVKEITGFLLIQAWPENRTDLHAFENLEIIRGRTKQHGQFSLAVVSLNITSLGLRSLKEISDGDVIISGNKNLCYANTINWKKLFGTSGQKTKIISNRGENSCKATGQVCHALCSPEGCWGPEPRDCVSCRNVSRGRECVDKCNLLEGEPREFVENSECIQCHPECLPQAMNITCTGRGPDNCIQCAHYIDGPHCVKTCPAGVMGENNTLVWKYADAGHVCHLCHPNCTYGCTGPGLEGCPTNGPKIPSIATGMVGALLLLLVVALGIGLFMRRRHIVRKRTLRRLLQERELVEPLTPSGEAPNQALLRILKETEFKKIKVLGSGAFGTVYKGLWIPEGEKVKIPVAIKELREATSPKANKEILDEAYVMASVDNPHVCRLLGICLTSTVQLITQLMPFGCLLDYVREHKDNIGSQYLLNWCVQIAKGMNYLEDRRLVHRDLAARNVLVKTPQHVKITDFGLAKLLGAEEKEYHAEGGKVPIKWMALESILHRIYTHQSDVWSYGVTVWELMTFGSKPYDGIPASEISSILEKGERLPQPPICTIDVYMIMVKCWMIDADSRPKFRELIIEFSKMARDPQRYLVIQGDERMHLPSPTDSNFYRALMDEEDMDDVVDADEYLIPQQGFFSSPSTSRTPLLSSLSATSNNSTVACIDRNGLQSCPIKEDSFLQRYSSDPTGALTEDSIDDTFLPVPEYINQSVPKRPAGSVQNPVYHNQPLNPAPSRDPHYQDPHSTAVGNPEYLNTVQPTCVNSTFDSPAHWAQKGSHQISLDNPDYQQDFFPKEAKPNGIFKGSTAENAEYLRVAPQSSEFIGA
The molecule `COc1cc2ncnc(Nc3cc(F)cc(C(F)(F)F)c3)c2cc1OC` displayed a half-inhibitory concentration (IC50) of 1630 nM. In the case of `CCOc1cc2ncnc(Nc3cc(F)cc(C(F)(F)F)c3)c2cc1OCC`, the IC50 was above 3000 nM. Still for that read-out and setting: the result for `COc1cc2ncnc(Nc3ccccc3F)c2cc1OC` reads 179 nM; that for `CCOc1cc2ncnc(Nc3ccccc3F)c2cc1OCC`, 141 nM; that for `CCOc1cc2ncnc(NCc3ccc(F)cc3)c2cc1OCC`, 188 nM.

In the case of `CCOc1cc2ncnc(Nc3cccc(Cl)c3)c2cc1OCC`, the half-maximal inhibitory concentration (IC50) is 108 nM. Take `CCOc1cc2ncnc(Nc3cccc(I)c3)c2cc1OCC`: the IC50 was determined as 153 nM. The IC50 values of the last two molecules are within 1.5-fold of each other. The same measure, in the same setting: the result for `CCOc1cc2ncnc(Nc3ccc(F)cc3)c2cc1OCC` reads 622 nM; that for `CCOc1cc2ncnc(Nc3cccc(Br)c3)c2cc1OCC`, 78 nM. The molecule `CCOc1cc2ncnc(Nc3cccc(F)c3)c2cc1OCC` returned an IC50 of 99 nM. `COc1cc2ncnc(Nc3ccc(F)cc3)c2cc1OC` yielded a half-maximal inhibitory concentration (IC50) of 612 nM. Same read-out and setting: the result for `COc1cc2ncnc(Nc3cccc(I)c3)c2cc1OC` reads 585 nM.
